Measurements published in patent US20170112896A1, “SMALL MOLECULE RAC OR RHO INHIBITORS” (Ohio State Innovation Foundation, priority 2014, published 2017).
“Also recorded” adds a separate entry of the source. Read-outs that look alike come from different tables or passages of the source. Square brackets hold non-standard residues; d marks the D form. Peptide text beside a SMILES is read from it. Phe(4-F) = N[C@@H](Cc1ccc(F)cc1)C(=O)O; d2Nal = N[C@H](Cc1ccc2ccccc2c1)C(=O)O; dNle = CCCC[C@@H](N)C(=O)O

Assays:
[1] = system: Akt, Mek and Erk phosphorylation in H1975 cells; test: Western blot of Akt, Mek, Erk phosphorylation in H1975 cells; type: cell-based; settings: 10 μM, 10 min
[2] = system: Akt, Mek and Erk phosphorylation in A549 cells; test: Western blot of Akt, Mek, Erk phosphorylation in A549 cells; type: cell-based; settings: 10 μM, 10 min
[3] = molecular target: T1, Ras(G12V)-Raf RBD interaction (Homo sapiens, UniProt P01116, G12V); test: HTRF assay, inhibition of Ras-Raf RBD interaction; type: binding; settings: relative to 9A1
T1 construct: The G12V mutant K-Ras (amino acids 1-185) was recombinantly fused to glutathione 5-transferase (GST) at its N-terminus; GST (N, cleaved yes); made in house; host or cells: Escherichia coli BL21
Description: Recombinant HA-tagged K-Ras (no GST, 50 nM), GST-Raf RBD (50 nM each), a monoclonal anti-HA antibody labeled with acceptor d2 (2 μg/mL), a monoclonal anti-GST antibody labeled with donor Tb (0.25 μg/mL) (Cisbio), and increasing concentrations of cyclic peptide (0-20 μM) were mixed in PBS (total volume of 20 μL) in a 384-well plate. The plate was incubated overnight at 4° C. and the HTRF signal was measured on a Molecular Devices Spectramax M5 or a Tecan infinite M1000 Pro plate reader. The data were analyzed by Prism 6.0 from Graphpad Software, Inc. (La Jolla, Calif.) and IC50 values were obtained by fitting the data to dose-response-inhibition curve.

[4] = system: Akt, Mek and Erk phosphorylation in H1650 cells; test: Western blot of Akt, Mek, Erk phosphorylation in H1650 cells; type: cell-based; settings: 10 μM, 10 min
[5] = system: Akt, Mek and Erk phosphorylation in H1299 cells; test: Western blot of Ras signaling (Akt, Mek, Erk phosphorylation) in H1299 cells; type: cell-based; settings: for IC50: 10 min treatment
Description: (§1) Two well characterized Ras effector pathways are the Raf-Mek-Erk and PI3K-Akt signaling pathways (Karnoub, A. E. et al. (2008) Nat Rev. Mol. Cell Biol. 9:517). To determine whether the cyclic peptides inhibited the intracellular Ras activity, Applicant monitored the phosphorylation levels of Mek, Erk, and Akt in cells before and after treatment with the Ras inhibitors. […] In order to rule out that the observed downregulation of P-Mek, P-Erk and P-Akt is caused by inhibition of EGFR signaling, the effect of Cyclosrasin 9A5 on the phosphorylation of the EGFR was tested by performing an IP/Western Blot experiment (FIG. 3E). Active, signaling EGFR is highly autohophosphorylated.

[6] = system: actin filaments in A549 cells; test: Actin filament staining (phalloidin-FITC) and cell morphology; type: cell-based; settings: cells exposed to peptide
[7] = system: Rac and Rho signaling (cofilin, Paxilin, FAK, Mek Ser298, c-Raf Ser338) in H1299 cells; test: Western blot of effector proteins of Rac and Rho signaling in H1299 cells; type: cell-based; settings: 13 μM
[8] = system: A549 lung cancer cells
[9] = system: EGF receptor phosphorylation; test: IP/Western blot of EGFR phosphorylation; type: cell-based; settings: 13 μM
Description: as §1

T1 sequence (P01116 1-185 isoform P01116-2 G12V): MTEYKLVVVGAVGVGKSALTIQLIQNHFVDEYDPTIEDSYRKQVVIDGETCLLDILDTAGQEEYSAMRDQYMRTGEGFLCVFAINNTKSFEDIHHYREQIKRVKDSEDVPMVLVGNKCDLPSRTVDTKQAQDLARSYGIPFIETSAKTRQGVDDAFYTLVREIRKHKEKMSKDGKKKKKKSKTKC

## CCCC[C@H]1NC(=O)[C@H](Cc2ccc(F)cc2)NC(=O)[C@H](CCCNC(=N)N)NC(=O)[C@@H](Cc2ccc3ccccc3c2)NC(=O)[C@H](CCCNC(=N)N)NC(=O)[C@H](CCCNC(=N)N)NC(=O)[C@H](CCCNC(=N)N)NC(=O)[C@@H](C)NC(=O)[C@H]([C@@H](C)O)NC(=O)[C@H](Cc2c[nH]c3ccccc23)NC(=O)[C@H](CCC(N)=O)NC1=O [Cyclorasin 9A5, (Trp-Thr-ala-Arg-Arg-Arg-nal-Arg-Fpa-nle-Gln)] (cyclo(WT[dA]RRR[d2Nal]R[Phe(4-F)][dNle]Q))
[1]
  Mek, Erk and Akt phosphorylation: almost completely abolished; also recorded: can be inhibited
[2]
  Mek, Erk and Akt phosphorylation: significant Mek and Erk phosphorylation remained
[3]
  higher potency than 9A1 against K-Ras: 3 fold
[4]
  Mek, Erk and Akt phosphorylation: almost completely abolished; also recorded: can be inhibited
[5]; H1299 cells unstimulated with EGF, 10 μM for 10 min
  basal phosphorylation of Mek and Akt: inhibited
[5]; H1299 cells, 10 μM, 10 min
  Mek, Erk and Akt phosphorylation: almost completely abolished
[5]; H1299 cells, 13 μM, 5 min
  EGF-induced phosphorylation of Akt and Mek: significant reduction
[5]; H1299 cells, 13 μM, time course
  phosphorylation level of Erk: decreased, but to a lesser extent and at a later time point
[5]; H1299 cells, 13 μM, ≧10 min
  EGF-induced phosphorylation of Akt and Mek: completely abolished
[5]; H1299 cells, read-out: IC50, inhibition of Akt phosphorylation
  IC50: ~5 µM
[5]; H1299 cells, read-out: IC50, inhibition of Mek phosphorylation
  IC50: ~5 µM
[6]
  cell morphology: rapid morphological changes
[7]
  phosphorylation of Paxilin (Tyr118), FAK (Tyr397), Mek (Ser298) and c-Raf (Ser338): dephosphorylated
  phosphorylation of cofilin: decreased
[8]
  cell permeability / intracellular fluorescence: improved cell permeability
[9]
  EGFR phosphorylation level: does no affect; also recorded: no effect
